What was measured:
KKA^y mouse = test: Measurement of Hypoglycemic Effect, KKAy mouse; type: in vivo; settings: oral, 24 hours after administration, read-out: % decrease (percentage of reducing blood glucose)
Description: (§1) KK mouse and KKAy mouse, NIDDM models (male, 6-7 weeks old) (Nakamura, Proc. Jpn. Acad. 38, 348-352, 1962; Iwatsuka et al. Endocrinol Jpn, 17, 23-35, 1970) were purchased from Nihon Clea. They were allowed free access to high-calories' chow (CMF, Oriental Yeast) and water. Around 40 g-weighted mice were examined.
(§2) Blood (20 μl) collected from the retro-orbital sinus was diluted in 60 units heparin sodium-solution and was centrifuged in a microfuge. The supernatant was assayed. The glucose concentration was determined by glucose oxidase method (Glucose Analyzer II, Beckman).
(§3) All test-compounds suspended in 0.5% carboxy-methyl cellulose (CMC)-saline were orally administered in mice. Before and 24 hours after the administration, blood was collected from the retro-orbital sinus, and a blood glucose value was measured in the above-mentioned manner. The hypoglycemic activity was expressed by the percentage of reducing blood glucose calculated before and 24 hours after the administration.

[1] = test system: bovine serum albumin (BSA); test: Measurement of Anti-Glycation Effect; type: biochemical; settings: for % decrease (anti-glycation effect, fluorescence per mg protein, percentage of the control): 5% BSA-0.5M G6P, 37° C., 10 day-incubation; for anti-glycation activities (in words): Test Example 2
Description: Because glycated protein is fluorescent, the amount of glycated protein can be determined using fluorescence, according to the previous reports (Doi et al., Proc. Natl. Acad. Sci. U.S.A., 89, 2873-2877, 1992: Mitsuhashi et al., Diabetes, vol. 42, 826-832, 1993). The experimental procedure was modified as follows. Five percent of bovine serum albumin (BSA) containing 0.5M glucose-6-phosphate-2Na (5% BSA-0.5M G6P) was filtration-sterilized (with 0.45 μm-pore size filter) and was incubated at 37° C.; positive control was incubated with 1% dimethyl sulfoxide (DMSO) at 37° C.; blank was incubated at 4° C. All test-compounds dissolved in DMSO (final concentration of DMSO was less than 1%) were added in 5% BSA-0.5M G6P. After 10 day-incubation 5% BSA-0.5M G6P with a compound, positive control and blank were dialyzed against 2L phosphate buffered saline for 24 hours (fractional molecular weight: 12,000-14,000).The dialyzed solution was diluted in water 4 times and was determined the fluorescence (ex. 370 nm-em. 440 nm). The protein concentration of the dialyzed solution (10 μL of which was diluted to 20 times with distilled water) was determined by Lowry-method and the fluorescence was expressed per mg protein. Control (100%) was positive control minus blank. Anti-glycation effect was calculated as the percentage of the control.

[2] = test system: AGE protein on arterial walls; settings: rat suffering from diabetes; Science, vol. 232, p. 1629 (1986); cited from earlier work
KK mouse = test: Measurement of Hypoglycemic Effect, KK mouse; type: in vivo; settings: for % decrease (percentage of reducing blood glucose): KK mouse, 30 mg/kg, oral, 24 hours after administration
Description: as §1, §2, §3

| Compound | inhibition in vivo at 30 mg/kg (KKA^y mouse) [%] | % decrease (percentage of reducing blood glucose) (KK mouse) [%] | % decrease (anti-glycation effect, fluorescence per mg protein, percentage of the control) ([1]; 100 μg/ml) [%] | other results |
| --- | --- | --- | --- | --- |
| COCOc1ccc(CC2SC(=O)NC2=O)nc1 (stereo not shown) [I-2a-2] | 39.9 |  |  |  |
| N=C(N)NN [aminoguanidine] |  |  |  | % decrease (anti-glycation effect, fluorescence per mg protein, percentage of the control) ([1]; 1 mM): 21.4%; % decrease (anti-glycation effect, fluorescence per mg protein, percentage of the control) ([1]; 10 mM): 48.9%; % decrease (anti-glycation effect, fluorescence per mg protein, percentage of the control) ([1]; 100 mM): 80.2%; prevention of formation of AGE protein on arterial walls (in words) [2]: prevents formation of AGE protein on arterial walls |
| Cc1oc(-c2ccccc2)nc1C(=O)COc1ccc(C=C2SC(=O)NC2=O)nc1 [I-1a-1, 5-((5-(2-oxo-2-(2-phenyl-5-methyl-4-oxazolyl)ethoxy)-2-pyridyl)methylidene)thiazolidin-2,4-dione] | 48.6 | 48.9 | 42.3 |  |
| Cc1ccc(-c2nc(C(O)COc3ccc(CC4SC(=O)NC4=O)nc3)c(C)o2)cc1 (stereo not shown) [I-2a-32] | 35.4 |  |  |  |
| Cc1oc(-c2ccc(F)cc2)nc1C(O)COc1ccc(CC2SC(=O)NC2=O)nc1 (stereo not shown) [I-2a-30] | 37.2 |  |  |  |
| Cc1oc(-c2ccccc2)nc1CCC(=O)c1ccc(CC2SC(=O)NC2=O)cc1 (stereo not shown) [CP-86325] | 39.5 | 39.4 | 10.3 | anti-glycation activities (in words) [1]: did not exhibit anti-glycation activities |
| Cc1cccc(-c2nc(C(=O)COc3ccc(CC4SC(=O)NC4=O)nc3)c(C)o2)c1 (stereo not shown) [I-2a-5] | 47.7 |  |  |  |
| Cc1c(C)c2c(c(C)c1O)CCC(C)(COc1ccc(CC3SC(=O)NC3=O)cc1)O2 (stereo not shown) [CS-045] | -3 | 24.2 | 10.1 | anti-glycation activities (in words) [1]: did not exhibit anti-glycation activities |
| O=C1NC(=O)C(=Cc2ccc(OCc3ccccc3)cn2)S1 [I-1a-3] |  |  | 34.1 |  |
| Cc1oc(-c2ccc(-c3ccccc3)cc2)nc1C(O)COc1ccc(CC2SC(=O)NC2=O)nc1 (stereo not shown) [I-2a-31] | 52.2 |  |  |  |
| Cc1oc(-c2ccccc2)nc1C(=O)COc1ccc(CC2SC(=O)NC2=O)nc1 (stereo not shown) [I-2a-1, 5-((5-(2-oxo-2-(2-phenyl-5-methyl-4-oxazolyl)ethoxy)-2-pyridyl)methyl)thiazolidin-2,4-dione] | 50 | 65.1 |  |  |
| COc1ccc(Cl)cc1C(=O)NCCc1ccc(S(=O)(=O)NC(=O)NC2CCCCC2)cc1 [glibenclamide] | -2.5 | -3.6 |  | hypoglycemic activity (in words) (KK mouse; Test Example 1, KK and KKAy mouse, 30 mg/kg oral): did not exhibit hypoglycemic activity |
| COCOc1ccc(C=C2SC(=O)NC2=O)nc1 [I-1a-2] |  |  | 24.1 |  |
| Cc1oc(-c2ccc(-c3ccccc3)cc2)nc1C(O)COc1ccc(C=C2SC(=O)NC2=O)nc1 (stereo not shown) [I-1a-43] | 47.3 |  |  |  |

— patent US5955481A, “Pyridine type thiazolidines” (Nissan Chemical Industries, Ltd., priority 1994, dated 1999)
